Values after ≈ are worked out from the molar mass of the structure shown. Active and inactive are the calls of the source. The rule behind the calls is not given here. Non-standard residues stand in square brackets, D forms with d. Residues, ends and D or L forms follow the SMILES beside them. ξ: configuration not given here. *: point of attachment. Stearoyl = CCCCCCCCCCCCCCCCCC(=O)*; Palmitoyl = CCCCCCCCCCCCCCCC(=O)*; Lauroyl = CCCCCCCCCCCC(=O)*; ξHyp = O=C(O)C1CC(O)CN1
What was measured:
[1] = test system: Staphylococcus aureus; experiment: Antimicrobial activity against Staphylococcus aureus PCM 2602 (ATCC 6538) after 16 to 20 hrs by broth micro-dilution method; assay type: functional
[2] = test system: Escherichia coli; experiment: Antimicrobial activity against Escherichia coli DSM11250 (PCM2560, NTCC 10538) after 16 to 20 hrs by broth micro-dilution method; assay type: functional
[3] = test system: Escherichia coli; experiment: Antimicrobial activity against Escherichia coli PCM 2561 (ATCC 8739, DSM 1576) after 16 to 20 hrs by broth micro-dilution method; assay type: functional
[4] = test system: Staphylococcus aureus; experiment: Antimicrobial activity against Staphylococcus aureus PCM 2054 (ATCC 25923) after 16 to 20 hrs by broth micro-dilution method; assay type: functional
[5] = test system: Staphylococcus aureus; experiment: Bacteriostatic activity against Staphylococcus aureus after 16 to 20 hrs by broth micro-dilution method; assay type: functional, organism-based
[6] = test system: Pseudomonas aeruginosa; experiment: Bacteriostatic activity against Pseudomonas aeruginosa PCM 2562 (ATCC9027) after 16 to 20 hrs by broth micro-dilution method; assay type: functional, organism-based
[7] = test system: Staphylococcus aureus; experiment: Antimicrobial activity against Staphylococcus aureus after 16 to 20 hrs by broth micro-dilution method; assay type: functional, organism-based
[8] = test system: Escherichia coli; experiment: Antimicrobial activity against Escherichia coli after 16 to 20 hrs by broth micro-dilution method; assay type: functional, organism-based
[9] = test system: Escherichia coli; experiment: Bactericidal activity against Escherichia coli up to 18 hrs by time-kill assay; assay type: functional, organism-based
[10] = test system: Staphylococcus aureus; experiment: Bactericidal activity against Staphylococcus aureus after 16 to 20 hrs by broth micro-dilution method; assay type: functional, organism-based
[11] = test system: Staphylococcus aureus; experiment: Bactericidal activity against Staphylococcus aureus at 8 times MIC after 18 hrs by time-kill assay; assay type: functional, organism-based
[12] = test system: Pseudomonas aeruginosa; experiment: Bactericidal activity against Pseudomonas aeruginosa PCM 2562 (ATCC9027) after 4 hrs by broth micro-dilution method; assay type: functional, organism-based
[13] = test system: Pseudomonas aeruginosa; experiment: Bactericidal activity against Pseudomonas aeruginosa PCM 2562 (ATCC9027) after 18 hrs by broth micro-dilution method; assay type: functional, organism-based
[14] = test system: Pseudomonas aeruginosa; experiment: Bactericidal activity against Pseudomonas aeruginosa PCM 2562 (ATCC9027) after 16 to 20 hrs by broth micro-dilution method; assay type: functional, organism-based
[15] = test system: Staphylococcus aureus; experiment: Bactericidal activity against Staphylococcus aureus at 0.5 to 1 time MIC up to 18 hrs by time-kill assay; assay type: functional, organism-based
[16] = test system: Staphylococcus aureus; experiment: Bactericidal activity against Staphylococcus aureus up to 4 times MIC up to 18 hrs by time-kill assay; assay type: functional, organism-based
[17] = test system: Staphylococcus aureus; experiment: Bactericidal activity against Staphylococcus aureus at 1 to 4 times MIC up to 18 hrs by time-kill assay; assay type: functional, organism-based
[18] = test system: Staphylococcus aureus; experiment: Bactericidal activity against Staphylococcus aureus at 4 times MIC up to 18 hrs by time-kill assay; assay type: functional, organism-based
[19] = test system: Candida albicans; experiment: Fungicidal activity against Candida albicans at 2 to 4 times MIC by time-kill assay; assay type: functional, organism-based
[20] = test system: Candida albicans; experiment: Fungicidal activity against Candida albicans at 2 times MIC by time-kill assay; assay type: functional, organism-based
[21] = test system: Candida albicans; experiment: Fungicidal activity against Candida albicans at 250 ug/ml by time-kill assay; assay type: functional, organism-based
[22] = test system: Candida albicans; experiment: Fungicidal activity against Candida albicans at 4 to 8 times MIC after 4 hrs by time-kill assay; assay type: functional, organism-based
[23] = test system: Candida albicans; experiment: Fungicidal activity against Candida albicans at 8 times MIC after 4 hrs by time-kill assay; assay type: functional, organism-based
[24] = test system: Staphylococcus aureus; experiment: Bactericidal activity against Staphylococcus aureus at 8 times MIC up to 18 hrs by time-kill assay; assay type: functional, organism-based
[25] = test system: Candida albicans; experiment: Fungicidal activity against Candida albicans at MIC by time-kill assay; assay type: functional, organism-based
[26] = test system: Staphylococcus aureus; experiment: Bactericidal activity against Staphylococcus aureus at 100 ug/ml up to 18 hrs by time-kill assay; assay type: functional, organism-based
[27] = test system: Staphylococcus aureus; experiment: Bactericidal activity against Staphylococcus aureus at 6 times MIC up to 18 hrs by time-kill assay; assay type: functional, organism-based
[28] = test system: Pseudomonas aeruginosa; experiment: Antimicrobial activity against Pseudomonas aeruginosa PCM 2562 (ATCC9027) after 16 to 20 hrs by broth micro-dilution method; assay type: functional
[29] = test system: Pseudomonas aeruginosa; experiment: Bactericidal activity against Pseudomonas aeruginosa PCM 2562 (ATCC9027) at 4 times MIC up to 18 hrs by broth micro-dilution method; assay type: functional, organism-based
[30] = test system: Staphylococcus aureus; experiment: Bactericidal activity against Staphylococcus aureus at 4 times MIC up to 18 hrs by time-kill assay
[31] = test system: Staphylococcus aureus; experiment: Bactericidal activity against Staphylococcus aureus at 0.5 to 1 times MIC up to 18 hrs by time-kill assay; assay type: functional, organism-based
[32] = test system: Candida albicans; experiment: Antifungal activity against Candida albicans after 16 to 20 hrs by broth micro-dilution method; assay type: functional, organism-based
[33] = test system: Candida albicans; experiment: Fungicidal activity against Candida albicans by time-kill assay; assay type: functional, organism-based
[34] = Staphylococcus aureus, PCM 2602 (ATCC 6538)
[35] = Escherichia coli, DSM11250 (PCM2560, NTCC 10538)
[36] = Escherichia coli, PCM 2561 (ATCC 8739, DSM 1576)
[37] = Staphylococcus aureus, PCM 2054 (ATCC 25923)
[38] = Pseudomonas aeruginosa, PCM 2562 (ATCC9027)

## NC[C@H]1O[C@H](O[C@H]2[C@H](O)[C@@H](O[C@H]3O[C@H](CO)[C@@H](O)[C@H](N)[C@H]3O)[C@H](N)C[C@@H]2N)[C@H](O)[C@@H](O)[C@@H]1O [KANAMYCIN]
[1]
  MBC50: 3.9 µg/mL (≈ 8.05 µM)
  MBC90: 7.8 µg/mL (≈ 16.1 µM)
[1]; [34]
  MBC: 11.7 µg/mL (≈ 24.1 µM)
  MIC: 2.9 µg/mL (≈ 5.99 µM)
  MIC50: 2.9 µg/mL (≈ 5.99 µM)
  MIC90: 5.8 µg/mL (≈ 12 µM)
[2]
  MBC50: 15.6 µg/mL (≈ 32.2 µM)
  MBC90: 31.3 µg/mL (≈ 64.6 µM)
[2]; [35]
  MBC: 7.8 µg/mL (≈ 16.1 µM)
  MIC: 3.9 µg/mL (≈ 8.05 µM)
  MIC50: 7.8 µg/mL (≈ 16.1 µM)
  MIC90: 15.6 µg/mL (≈ 32.2 µM)
[3]
  MBC50: 15.6 µg/mL (≈ 32.2 µM)
  MBC90: 31.3 µg/mL (≈ 64.6 µM)
[3]; [36]
  MBC: 7.8 µg/mL (≈ 16.1 µM)
  MIC: 3.9 µg/mL (≈ 8.05 µM)
  MIC50: 7.8 µg/mL (≈ 16.1 µM)
  MIC90: 15.6 µg/mL (≈ 32.2 µM)
[4]
  MBC50: 3.9 µg/mL (≈ 8.05 µM)
  MBC90: 7.8 µg/mL (≈ 16.1 µM)
[4]; [37]
  MBC: 11.7 µg/mL (≈ 24.1 µM)
  MIC: 2.9 µg/mL (≈ 5.99 µM)
  MIC50: 2.9 µg/mL (≈ 5.99 µM)
  MIC90: 5.8 µg/mL (≈ 12 µM)

## NCCCC[C@H](NC(=O)[C@H](Cc1cnc[nH]1)NC(=O)CN)C(=O)O (H-Gly-His-Lys-OH)
[5]
  Activity: Active
[6]
  Activity: Active
[7]
  Activity: Active
[8]
  Activity: Active

## CCCCCCCCCCCC(=O)NCC(=O)N1CC(O)CC1C(=O)N[C@@H](CCCCN)C(=O)O (some centres undefined)
[9]
  Activity: Active
[5]
  Activity: Active
[6]
  Activity: Active
[10]
  Activity: Active
[8]
  Activity: Active
[11]
  Activity: Active
[12]
  Activity: Active
[13]
  Activity: Active
[14]
  Activity: Active

## CCCCCCCCCCCCCCCCCC(=O)NCC(=O)N1CC(O)CC1C(=O)N[C@H](CCCCN)C(=O)O (some centres undefined)
[9]
  Activity: Active

## CCCCCCCCCCCCCCCC(=O)NCC(=O)N1CC(O)CC1C(=O)N[C@@H](CCCCN)C(=O)O (some centres undefined) (Palmitoyl-Gly-[ξHyp]-Lys-OH)
[9]
  Activity: Active
[15]
  Activity: Active
[16]
  Activity: Active
[17]
  Activity: Active
[12]
  Activity: Active
[18]
  Activity: Active
[13]
  Activity: Active

## CCCCCCCCCCCCCCCCCC(=O)NCC(=O)NCC(=O)N1CC(O)CC1C(=O)N[C@@H](CCCCN)C(=O)O (some centres undefined) (Stearoyl-GG[ξHyp]K-OH)
[19]
  Activity: Active
[20]
  Activity: Active

## NCCCC[C@H](NC(=O)C1CC(O)CN1C(=O)CN)C(=O)O (some centres undefined) (H-Gly-[ξHyp]-Lys-OH)
[5]
  Activity: Active
[6]
  Activity: Active
[7]
  Activity: Active
[8]
  Activity: Active

## CCCCCCCCCCCCCCCCCC(=O)NCC(=O)N1CC(O)CC1C(=O)N[C@@H](CCCCN)C(=O)O (some centres undefined)
[9]
  Activity: Active
[21]
  Activity: Active
[22]
  Activity: Active
[23]
  Activity: Active
[16]
  Activity: Active

## CC(=O)NCC(=O)NCC(=O)N1CC(O)CC1C(=O)N[C@@H](CCCCN)C(=O)O (some centres undefined) (Ac-GG[ξHyp]K-OH)
[9]
  Activity: Active

## CSCC[C@H](NC(=O)C1CC(O)CN1C(=O)CN)C(=O)N[C@@H](CCCCN)C(=O)O (some centres undefined) (H-G[ξHyp]MK-OH)
[9]
  Activity: Active
[7]
  Activity: Active
[8]
  Activity: inactive

## CCCCCCCCCCCC(=O)NCC(=O)N1CC(O)CC1C(=O)N[C@@H](CCSC)C(=O)N[C@@H](CCCCN)C(=O)O (some centres undefined) (Lauroyl-G[ξHyp]MK-OH)
[24]
  Activity: Active

## CCCCCCCCCCCCCCCC(=O)NCC(=O)N1CC(O)CC1C(=O)N[C@@H](CCCCN)C(N)=O (some centres undefined) (Palmitoyl-Gly-[ξHyp]-Lys-NH2)
[25]
  Activity: Active
[26]
  Activity: Active
[1]
  MBC50: 93.7 µg/mL (≈ 169 µM)
  MBC90: 125 µg/mL (≈ 226 µM)
[1]; [34]
  MIC50: 31.3 µg/mL (≈ 56.5 µM)
  MIC90: 31.3 µg/mL (≈ 56.5 µM)
[20]
  Activity: Active
[2]; [35]
  MIC50: 31.3 µg/mL (≈ 56.5 µM)
  MIC90: 62.5 µg/mL (≈ 113 µM)
[27]
  Activity: Active
[3]; [36]
  MIC50: 62.5 µg/mL (≈ 113 µM)
  MIC90: 125 µg/mL (≈ 226 µM)
[4]
  MBC50: 93.7 µg/mL (≈ 169 µM)
  MBC90: 125 µg/mL (≈ 226 µM)
[4]; [37]
  MIC50: 31.3 µg/mL (≈ 56.5 µM)
  MIC90: 62.5 µg/mL (≈ 113 µM)
[28]
  MBC50: 1500 µg/mL (≈ 2710 µM)
  MBC90: 2000 µg/mL (≈ 3610 µM)
[28]; [38]
  MIC50: 375 µg/mL (≈ 677 µM)
  MIC90: 500 µg/mL (≈ 903 µM)
[18]
  Activity: Active
[29]
  Activity: Active

## CC(=O)NCC(=O)N1CC(O)CC1C(=O)N[C@H](CCCCN)C(=O)O (some centres undefined)
[8]
  Activity: Active

## CSCC[C@H](NC(=O)CN)C(=O)N[C@@H](CCCCN)C(=O)O (H-Gly-Met-Lys-OH)
[9]
  Activity: Active
[8]
  Activity: inactive

## CCCCCCCCCCCC(=O)NCC(=O)N1CC(O)CC1C(=O)N[C@H](CCCCN)C(=O)O (some centres undefined)
[9]
  Activity: Active
[16]
  Activity: Active
[8]
  Activity: Active
[30]
  Activity: Active

## CCCCCCCCCCCC(=O)NCC(=O)NCC(=O)N1CC(O)CC1C(=O)N[C@@H](CCCCN)C(=O)O (some centres undefined) (Lauroyl-GG[ξHyp]K-OH)
[9]
  Activity: Active
[31]
  Activity: Active

## CN(C)[C@@H]1C(O)=C(C(N)=O)C(=O)[C@@]2(O)C(O)=C3C(=O)c4c(O)cccc4[C@@](C)(O)[C@H]3C[C@@H]12 [TETRACYCLINE]
[28]
  MBC50: 31.3 µg/mL (≈ 70.4 µM)
  MBC90: 62.5 µg/mL (≈ 141 µM)
[28]; [38]
  MBC: 31.3 µg/mL (≈ 70.4 µM)
  MIC: 3.9 µg/mL (≈ 8.78 µM)
  MIC50: 3.91 µg/mL (≈ 8.8 µM)
  MIC90: 7.81 µg/mL (≈ 17.6 µM)

## NYSTATIN
[32]
  MFC: 7.8 µg/mL
  MFC50: 1.9 µg/mL
  MFC90: 7.8 µg/mL
  MIC50: 1.9 µg/mL
  MIC90: 3.9 µg/mL
[33]
  Activity: Active
